# The source made the active and inactive calls.
# Experiments:
# cells [1] = format: functional, cell-based
# cells [2] = format: functional, cell-based; remark: listed apart in the source
# Major prion protein = Major prion protein (Homo sapiens, UniProt P04156); format: functional, cell-based
# cells [3] = test: cells
# [4] = molecular target: Peroxisome proliferator-activated receptor gamma/Nuclear receptor coactivator 2 (Homo sapiens, UniProt P37231); format: functional;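 further: agonist potency for raising coactivator recruitment to the receptor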
# [5] = molecular target: Peroxisome proliferator-activated receptor gamma/Nuclear receptor coactivator 1 (Homo sapiens, UniProt P37231); format: functional;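 further: agonist potency as compounds enhance coactivator SRC-1 recruitment to PPARgamma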
# [6] = molecular target: Peroxisome proliferator-activated receptor gamma/Nuclear receptor coactivator 3 (Homo sapiens, UniProt P37231); format: functional;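 further: agonist potency for raising coactivator recruitment to the receptor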
# CAAX prenyl protease 2 = molecular target: T1, CAAX prenyl protease 2 (Saccharomyces cerevisiae S288c, UniProt Q03530); format: biochemical
# T1 sequence (Q03530 whole entry): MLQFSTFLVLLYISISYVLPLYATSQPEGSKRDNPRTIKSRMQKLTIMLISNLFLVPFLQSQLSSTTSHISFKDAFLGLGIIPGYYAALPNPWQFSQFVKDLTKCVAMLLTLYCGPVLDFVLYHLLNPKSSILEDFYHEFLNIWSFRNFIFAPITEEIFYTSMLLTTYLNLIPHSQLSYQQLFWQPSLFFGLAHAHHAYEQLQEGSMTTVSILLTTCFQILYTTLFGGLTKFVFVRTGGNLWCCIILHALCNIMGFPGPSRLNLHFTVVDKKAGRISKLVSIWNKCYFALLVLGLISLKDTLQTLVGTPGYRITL
# [7] = molecular target: DNA dC->dU-editing enzyme APOBEC-3G (Homo sapiens, UniProt Q9HC16); test: Dose Response confirmation of small molecule APOBEC3G DNA Deaminase Inhibitors via a fluorescence-based single-stranded DNA deaminase assay. [Related pubchem assays (depositor defined):AID493012, AID493028]; format: functional
# [8] = viability of uninfected HEp-2 cells – cell-based, HTS, cytotoxicity control for RSV inhibitor project, dose response (AID 2410); format: functional; conditions: human respiratory syncytial virus
# cells [9] = format: functional, cell-based; remark: listed apart in the source
# cells [10] = format: functional, cell-based; remark: listed apart in the source
# [11] = molecular target: T2, Heat shock factor protein 1 (Mus musculus, UniProt P38532); test: enhancement of HSF1-driven luciferase signal – cell-based, NIH3T3, luminescence, dose retest, confirmation (AID 435004); format: functional;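 further: stress induced by proteasome inhibitor MG132 added 30 min after compound; luciferase reporter driven by HSF1 response element in NIH3T3 cells; actives raise luminescence as potentiators of the MG132 stress response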
# T2 sequence (P38532 whole entry): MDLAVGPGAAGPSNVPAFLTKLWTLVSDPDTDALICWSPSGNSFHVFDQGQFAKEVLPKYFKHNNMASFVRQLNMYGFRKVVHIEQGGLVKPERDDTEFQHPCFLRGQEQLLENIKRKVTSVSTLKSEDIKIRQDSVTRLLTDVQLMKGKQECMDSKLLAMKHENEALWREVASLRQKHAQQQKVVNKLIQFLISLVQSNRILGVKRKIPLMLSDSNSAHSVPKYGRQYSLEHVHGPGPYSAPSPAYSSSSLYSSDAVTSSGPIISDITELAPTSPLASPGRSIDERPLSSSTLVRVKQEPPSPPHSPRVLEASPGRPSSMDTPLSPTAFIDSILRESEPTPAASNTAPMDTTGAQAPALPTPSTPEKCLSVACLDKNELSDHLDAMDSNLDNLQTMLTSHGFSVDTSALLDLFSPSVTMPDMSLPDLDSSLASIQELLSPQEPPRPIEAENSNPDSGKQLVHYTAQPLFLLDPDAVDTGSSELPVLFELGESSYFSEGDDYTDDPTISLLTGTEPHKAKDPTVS
# H9c2 = test: cells; format: functional, cell-based; conditions: Rattus norvegicus, H9c2, Myocardium;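 further: confirmatory concentration-response retest of ultra-high-throughput screening hits for modulation of myocardial damage; cell death induced by hydrogen peroxide oxidative stress; compound pretreatment for 60 min then peroxide exposure for 2 h; potency is for protecting the cells against peroxide damage rather than for killing them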
# [12] = system: Streptococcus sp. 'group A'; test: Streptococcus pyogenes SK(-)GAS viability under kanamycin – luminescence, BacTiterGlo, confirmation, counter-screen for streptokinase expression inhibitor project, dose response (AID 1900); format: functional, organism-based
# Streptokinase A = molecular target: T3, Streptokinase A (Streptococcus pyogenes serotype M1, UniProt P10520); test: viability-normalized secreted streptokinase activity reduction – plasminogen activation absorbance, OD405, dose response (AID 1914); format: functional, Streptococcus pyogenes M1 GAS;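 further: secreted streptokinase activity via plasminogen activation per viability signal from cell pellet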
# T3 sequence (P10520 whole entry): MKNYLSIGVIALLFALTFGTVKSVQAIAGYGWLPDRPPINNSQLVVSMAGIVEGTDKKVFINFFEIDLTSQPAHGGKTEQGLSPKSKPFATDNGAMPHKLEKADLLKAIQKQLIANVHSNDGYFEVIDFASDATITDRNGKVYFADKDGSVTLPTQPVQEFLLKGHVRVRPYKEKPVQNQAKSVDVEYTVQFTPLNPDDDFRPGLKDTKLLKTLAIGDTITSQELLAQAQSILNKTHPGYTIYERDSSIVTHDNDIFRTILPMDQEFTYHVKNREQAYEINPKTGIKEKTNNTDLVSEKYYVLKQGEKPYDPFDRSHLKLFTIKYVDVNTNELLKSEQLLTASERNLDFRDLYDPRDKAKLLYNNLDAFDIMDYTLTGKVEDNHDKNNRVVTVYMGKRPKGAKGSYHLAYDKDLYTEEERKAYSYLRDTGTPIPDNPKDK
# Streptococcus = test: GAS UMAA2166 growth inhibition – luminescence, BacTiterGlo, counter-screen for streptokinase expression inhibitor project, dose response (AID 1915); format: functional, organism-based;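 further: potency for reduction of bacterial viability or growth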
# Beta-galactosidase = Beta-galactosidase (Escherichia coli, UniProt Q8VNN2); test: Dose response counterscreen for EBI2 assay utilizing the enzyme, b-galactosidase.; format: functional
# [13] = molecular target: T4, Endoribonuclease toxin MazF (Escherichia coli K-12, UniProt P0AE70); test: activation of MazEF endoribonuclease cleavage – biochemical, fluorescence, single-stranded RNA substrate, uHTS hits, dose response (AID 588481); format: functional
# T4 sequence (P0AE70 whole entry): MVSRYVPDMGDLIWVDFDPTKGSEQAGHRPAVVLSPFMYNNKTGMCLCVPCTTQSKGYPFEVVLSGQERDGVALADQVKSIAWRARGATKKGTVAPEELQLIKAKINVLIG
# [14] = molecular target: T4, Endoribonuclease toxin MazF; test: substrate-only fluorescence increase artefacts – biochemical, single-stranded RNase substrate, counter-screen for MazEF activator project, dose response (AID 588502); format: functional
# [15] = molecular target: T5, RNA-binding protein pos-1 (Caenorhabditis elegans, UniProt G5EF15); test: disruptors of C. elegans POS-1 RNA interaction – biochemical, fluorescence polarization, dose response (AID 1964);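 further: purified POS-1 fused to maltose binding protein made in E. coli; potency of compounds blocking POS-1 binding to fluorescent RNA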
# T5 sequence (G5EF15 whole entry): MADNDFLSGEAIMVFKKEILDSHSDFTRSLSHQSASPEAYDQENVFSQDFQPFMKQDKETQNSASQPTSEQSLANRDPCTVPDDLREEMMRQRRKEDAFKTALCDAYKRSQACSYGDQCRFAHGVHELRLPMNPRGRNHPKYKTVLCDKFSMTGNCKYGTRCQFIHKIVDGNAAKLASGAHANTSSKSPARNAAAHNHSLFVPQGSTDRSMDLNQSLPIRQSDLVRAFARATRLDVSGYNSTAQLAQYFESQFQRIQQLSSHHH
# [16] = molecular target: T6, Zinc finger protein mex-5 (Caenorhabditis elegans, UniProt Q9XUB2); test: potency of MEX-5 RNA-binding blockers – biochemical, C. elegans, fluorescence polarization, dose response (AID 1960)
# T6 sequence (Q9XUB2 whole entry): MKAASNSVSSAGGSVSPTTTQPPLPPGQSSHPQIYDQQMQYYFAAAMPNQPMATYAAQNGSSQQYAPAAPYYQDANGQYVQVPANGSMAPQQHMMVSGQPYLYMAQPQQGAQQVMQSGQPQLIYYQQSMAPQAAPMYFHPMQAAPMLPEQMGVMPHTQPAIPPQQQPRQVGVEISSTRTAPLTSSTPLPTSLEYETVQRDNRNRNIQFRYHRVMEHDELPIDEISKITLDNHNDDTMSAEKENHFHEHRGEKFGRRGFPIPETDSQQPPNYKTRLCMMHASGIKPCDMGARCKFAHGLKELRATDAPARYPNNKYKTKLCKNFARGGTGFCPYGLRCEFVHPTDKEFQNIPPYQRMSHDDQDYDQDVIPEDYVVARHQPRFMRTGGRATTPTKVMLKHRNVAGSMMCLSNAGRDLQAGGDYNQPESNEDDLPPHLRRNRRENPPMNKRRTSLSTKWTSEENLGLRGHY
# [17] = Trypanosoma cruzi growth suppression in host cells – NIH3T3 host cells, beta-gal luminescence, confirmation (AID 2044); format: functional, cell-based;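 further: intracellular parasites grown in NIH/3T3 mouse fibroblasts as host cells; luminescent beta-galactosidase reporter signal from transgenic T. cruzi replicating inside host cells; inhibitors lower the luminescence signal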
# [18] = NIH3T3 cell viability loss – ATP luminescence, mouse fibroblasts, counter-screen, dose response (AID 2010); format: functional, cell-based;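 further: cells exposed to compound for about 90 hours before reading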
# [19] = molecular target: Voltage-dependent T-type calcium channel subunit alpha-1H (Homo sapiens, UniProt O95180); format: functional;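 further: channel activity triggered by adding a high calcium stimulation buffer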
# [20] = A cytotoxicity screen of small molecule inhibitors of the PhoP region in Salmonella typhi identified in the primary screen. [Related pubchem assays: 1850, 1864, 1985 ]; format: functional
structure (smiles),measurement,setting,value
COc1ccc(NC(=S)N2CCc3ccccc3C2)cc1OC,IC50,cells [1],> 29.9 µM (inactive)
same,EC50,cells [2],> 29.9 µM (inactive)
CCN(CC)C(=O)CSc1nc(O)c(Cc2ccccc2)c(=O)n1-c1ccccc1,IC50,Major prion protein,14.6 µM (inactive)
same,IC50,cells [3],> 138 µM (inactive)
CC(=O)N1CCN(c2ccc(NC(=O)/C=C/c3ccccc3)cc2)CC1,EC50,[4],> 79.4 µM (not active)
same,EC50,[5],> 79.4 µM (not active)
same,EC50,[6],> 79.4 µM (not active)
Cc1cccc(N(CC(=O)N2CCN(c3ccc(F)cc3)CC2)S(C)(=O)=O)c1C,EC50,[4],> 79.4 µM (not active)
same,EC50,[5],> 79.4 µM (not active)
same,EC50,[6],> 79.4 µM (not active)
O=C(O)CSc1ncnc2sc3c(c12)CCCC3,IC50,Major prion protein,8.49 µM (active)
same,IC50,cells [3],> 138 µM (inactive)
Cc1cc(OCc2ccccc2)ccc1C(=O)C1=C(O)C(=O)N(Cc2cccnc2)C1c1ccncc1 (centres undefined),IC50,Major prion protein,12.5 µM (inactive)
same,IC50,cells [3],> 138 µM (inactive)
COc1cccc(C(=O)Nc2nnc(SCC(=O)NC3CCCC3)s2)c1,AC50,CAAX prenyl protease 2,52.3 µM (active)
CC1C(Br)C(=O)NC(=O)N1Cc1ccccc1 (centres undefined),EC50,[4],> 79.4 µM (not active)
same,EC50,[5],> 79.4 µM (not active)
same,EC50,[6],> 79.4 µM (not active)
COc1ccc(-c2nc3ccccc3c(=O)n2NC(=S)N(C)C)cc1,IC50,[7],35.1 µM (active)
CCOC(=O)c1cc(-c2ccccc2)sc1NC(=O)C(C)Sc1nnnn1C (centres undefined),CC50,[8],> 50 µM (active)
same,AC50,CAAX prenyl protease 2,7.54 µM (active)
O=C(Nc1cccc(-c2cn3ccccc3n2)c1)C1CC1,EC50,cells [9],> 350 µM (not active)
same,EC50,cells [10],> 350 µM (not active)
same,AC50,CAAX prenyl protease 2,31.9 µM (active)
Cc1nnc(SCc2ccccc2)n1N,EC50,[4],> 79.4 µM (not active)
same,EC50,[5],> 79.4 µM (not active)
same,EC50,[6],> 79.4 µM (not active)
C[C@H]1COc2c3ccc(I)cc3nn21,IC50,Major prion protein,3.61 µM (active)
same,IC50,cells [3],> 138 µM (inactive)
Cc1cc(C)c(C#N)c(=N)o1,IC50,[7],37.4 µM (active)
COc1cccc(NC(=S)NC(=O)c2c(Cl)c(C)nn2C)c1,EC50,[4],> 79.4 µM (not active)
same,EC50,[5],> 79.4 µM (not active)
same,EC50,[6],> 79.4 µM (not active)
same,EC50,[11],63.7 µM (active)
CCc1cc2cccc(C)c2nc1SCC(=O)N1CCN(C(=O)c2ccco2)CC1,IC50,H9c2,> 79 µM (inactive)
same,IC50,Major prion protein,10.7 µM (inactive)
same,IC50,cells [3],54.9 µM (inactive)
COc1ccccc1N1CCN(C(=O)/C=C/c2ccc(C)cc2)CC1,EC50,[12],> 150 µM (not active)
same,EC50,Streptokinase A,107 µM (active)
same,EC50,Streptococcus,> 150 µM (not active)
same,IC50,Beta-galactosidase,> 80 µM (inactive)
CC(=O)c1ccc(N2CCN(C(=O)c3cc4c(C)nc5ccccc5c4o3)CC2)cc1,EC50,[13],> 99 µM (inactive)
same,EC50,[14],30.7 µM (inactive)
Oc1nc(Nc2ccccc2)nc(N2CCCCC2)n1,IC50,cells [1],> 29.9 µM (inactive)
same,EC50,cells [2],> 29.9 µM (inactive)
CSc1cc(-c2ccc(Cl)cc2)n(Cc2ccccc2)c(=O)c1C#N,EC50,[4],41.4 µM (not active)
same,EC50,[5],44.7 µM (not active)
same,EC50,[6],80.7 µM (not active)
Oc1nc2ccccc2nc1/C=C/c1ccc(F)cc1,EC50,[15],41.9 µM (inconclusive)
same,EC50,[16],> 300 µM (not active)
same,EC50,[13],15.6 µM (active)
same,EC50,[14],> 99 µM (inactive)
Cc1ccc(OCC(=O)N2CCN(c3nnc(-c4ccccc4)c4ccccc34)CC2)cc1,EC50,[17],1.92 µM (active)
same,EC50,[18],> 60 µM (not active)
same,EC50,[19],3.8 µM (active)
same,IC50,Beta-galactosidase,> 80 µM (inactive)
CC(=O)Nc1ccc(-c2ccnc(-c3ccc(NC(C)=O)cc3)n2)cc1,IC50,Major prion protein,26.7 µM (inactive)
same,IC50,cells [3],> 138 µM (inactive)
CC1(C)CC(=O)C(=NNc2cc3c(cc2[N+](=O)[O-])OCCO3)C(=O)C1,EC50,[13],> 99 µM (inactive)
same,EC50,[14],29.6 µM (inactive)
CCS(=O)(=O)N1CCN(C2CCC(c3ccccc3)CC2)CC1 (centres undefined),EC50,[4],> 79.4 µM (not active)
same,EC50,[5],> 79.4 µM (not active)
same,EC50,[20],> 50 µM (active)
same,EC50,[6],> 79.4 µM (not active)

# Reference: ChEMBL document CHEMBL1201862, “PubChem BioAssay data set” (2004)
